Measured values taken from PMC11206203, “Peptide macrocyclisation via intramolecular interception of visible-light-mediated desulfurisation” (Chemical Science, 2024).

Test: C(sp3)-C(sp3) bond formation by visible-light-mediated Cys desulfurisation: alanyl radical adds to terminal alkene of allylglycine (or O-allyl Ser, pentenylGly, acrylamide); TCEP 50 eq (25 mM), (Ir[dF(CF3)ppy]2(dtbpy))PF6 1 mol%, 450 nm blue LED; unprotected peptides
Conditions: 6 M Gdn.HCl, 0.1 M Na2HPO4 pH 7.5-8.0 / MeCN 9:1, 0.5 mM, 25.0 °C

## CC[C@H](C)[C@@H]1NC(=O)[C@@H](NC(C)=O)CCCC[C@@H](C(N)=O)NC(=O)[C@H](CCCNC(=N)N)NC(=O)[C@H](Cc2c[nH]c3ccccc23)NC1=O [Ac-(allylGly)-Ile-Trp-Arg-Cys-NH2]
From C=CC[C@H](NC(C)=O)C(=O)N[C@H](C(=O)N[C@@H](Cc1c[nH]c2ccccc12)C(=O)N[C@@H](CCCNC(=N)N)C(=O)N[C@@H](CS)C(N)=O)[C@@H](C)CC, 17-membered ring
  ring closure, isolated yield: 59%

## CC(=O)N[C@H]1CCCC[C@@H](C(N)=O)NC(=O)[C@H](CC(=O)O)NC(=O)CNC(=O)[C@H](C(C)C)NC1=O [Ac-(allylGly)-Val-Gly-Asp-Cys-NH2]
From C=CC[C@H](NC(C)=O)C(=O)N[C@H](C(=O)NCC(=O)N[C@@H](CC(=O)O)C(=O)N[C@@H](CS)C(N)=O)C(C)C, 17-membered ring
  ring closure, isolated yield: 54%

## CSCC[C@@H]1NC(=O)[C@H](Cc2ccc(O)cc2)NC(=O)[C@H](CC(C)C)NC(=O)[C@@H](N)CCCC[C@@H](C(N)=O)NC1=O [H-(allylGly)-Leu-Tyr-Met-Cys-NH2]
From C=CC[C@H](N)C(=O)N[C@@H](CC(C)C)C(=O)N[C@@H](Cc1ccc(O)cc1)C(=O)N[C@@H](CCSC)C(=O)N[C@@H](CS)C(N)=O, 17-membered ring
  ring closure, isolated yield: 54%

## CSCC[C@@H]1NC(=O)[C@@H]2CCCN2C(=O)[C@H](CCCNC(=N)N)NC(=O)[C@@H](NC(C)=O)CCCC[C@@H](C(N)=O)NC(=O)[C@H](Cc2c[nH]cn2)NC1=O [Ac-(allylGly)-Arg-Pro-Met-His-Cys-NH2]
From C=CC[C@H](NC(C)=O)C(=O)N[C@@H](CCCNC(=N)N)C(=O)N1CCC[C@H]1C(=O)N[C@@H](CCSC)C(=O)N[C@@H](Cc1c[nH]cn1)C(=O)N[C@@H](CS)C(N)=O, 20-membered ring
  ring closure, isolated yield: 48%

## CSCC[C@@H]1NC(=O)[C@@H](N)CCCC[C@@H](C(N)=O)NC(=O)[C@H](CCCCN)NC(=O)[C@H](CCC(=O)O)NC(=O)[C@H](CC(C)C)NC(=O)[C@H](C)NC1=O [H-(allylGly)-Met-Ala-Leu-Glu-Lys-Cys-NH2]
From C=CC[C@H](N)C(=O)N[C@@H](CCSC)C(=O)N[C@@H](C)C(=O)N[C@@H](CC(C)C)C(=O)N[C@@H](CCC(=O)O)C(=O)N[C@@H](CCCCN)C(=O)N[C@@H](CS)C(N)=O, 23-membered ring
  ring closure, isolated yield: 44%

## CC[C@H](C)[C@@H]1NC(=O)[C@H](Cc2ccc(O)cc2)NC(=O)[C@@H](N)CCCC[C@@H](C(=O)N2CCC[C@H]2C(=O)N[C@@H](CC(C)C)C(=O)NCC(N)=O)NC(=O)[C@H](CC(N)=O)NC(=O)[C@H](CCC(N)=O)NC1=O [H-(allylGly)-Tyr-Ile-Gln-Asn-Cys-Pro-Leu-Gly-NH2]
From C=CC[C@H](N)C(=O)N[C@@H](Cc1ccc(O)cc1)C(=O)N[C@H](C(=O)N[C@@H](CCC(N)=O)C(=O)N[C@@H](CC(N)=O)C(=O)N[C@@H](CS)C(=O)N1CCC[C@H]1C(=O)N[C@@H](CC(C)C)C(=O)NCC(N)=O)[C@@H](C)CC, 20-membered ring
  ring closure, isolated yield: 0%

## CC(=O)N[C@H]1CCCC[C@@H](C(N)=O)NC(=O)[C@H](CCCCN)NC(=O)[C@@H]2CCCN2C(=O)[C@H]([C@@H](C)O)NC1=O [Ac-(allylGly)-Thr-Pro-Lys-Cys-NH2]
From C=CC[C@H](NC(C)=O)C(=O)N[C@H](C(=O)N1CCC[C@H]1C(=O)N[C@@H](CCCCN)C(=O)N[C@@H](CS)C(N)=O)[C@@H](C)O, 17-membered ring
  ring closure, isolated yield: 48%

## NCCCC[C@@H]1NC(=O)[C@H](CC(=O)O)NC(=O)[C@@H](N)CCCC[C@@H](C(N)=O)NC(=O)[C@H](CCC(=O)O)NC(=O)[C@H](Cc2c[nH]cn2)NC(=O)[C@H](CC(N)=O)NC(=O)[C@H](Cc2ccccc2)NC1=O [H-(allylGly)-Asp-Lys-Phe-Asn-His-Glu-Cys-NH2]
From C=CC[C@H](N)C(=O)N[C@@H](CC(=O)O)C(=O)N[C@@H](CCCCN)C(=O)N[C@@H](Cc1ccccc1)C(=O)N[C@@H](CC(N)=O)C(=O)N[C@@H](Cc1c[nH]cn1)C(=O)N[C@@H](CCC(=O)O)C(=O)N[C@@H](CS)C(N)=O, 26-membered ring
  ring closure, isolated yield: 70%

## CCCC[C@H](NC(=O)[C@@H]1CCCC[C@H](NC(=O)[C@H](C)NC(=O)[C@H](CC(C)C)NC(=O)[C@H](Cc2c[nH]cn2)NC(C)=O)C(=O)N[C@@H](C(C)C)C(=O)NCC(=O)N[C@@H](CC(=O)O)C(=O)N1)C(=O)N[C@@H](CC(=O)O)C(=O)N[C@@H](CCCNC(=N)N)C(N)=O [Ac-His-Leu-Ala-(allylGly)-Val-Gly-Asp-Cys-Nle-Asp-Arg-NH2]
From C=CC[C@H](NC(=O)[C@H](C)NC(=O)[C@H](CC(C)C)NC(=O)[C@H](Cc1c[nH]cn1)NC(C)=O)C(=O)N[C@H](C(=O)NCC(=O)N[C@@H](CC(=O)O)C(=O)N[C@@H](CS)C(=O)N[C@@H](CCCC)C(=O)N[C@@H](CC(=O)O)C(=O)N[C@@H](CCCNC(=N)N)C(N)=O)C(C)C, 17-membered ring
  ring closure, isolated yield: 23%

## C[C@@H]1NC(=O)[C@H](Cc2ccccc2)NC(=O)[C@H](C)NC(=O)[C@@H](N)COCCCC[C@@H](C(N)=O)NC1=O [H-Ser(OAllyl)-Ala-Phe-Ala-Cys-NH2]
From C=CCOC[C@H](N)C(=O)N[C@@H](C)C(=O)N[C@@H](Cc1ccccc1)C(=O)N[C@@H](C)C(=O)N[C@@H](CS)C(N)=O, 19-membered ring, 1.0 h
  ring closure, isolated yield: 78%

## CC1CC[C@@H](C(N)=O)NC(=O)[C@H](C)NC(=O)[C@H](Cc2ccccc2)NC(=O)[C@H](C)NC(=O)[C@@H](N)COC1 (stereo partly drawn) [H-Ser(O-2-methylallyl)-Ala-Phe-Ala-Cys-NH2]
From C=C(C)COC[C@H](N)C(=O)N[C@@H](C)C(=O)N[C@@H](Cc1ccccc1)C(=O)N[C@@H](C)C(=O)N[C@@H](CS)C(N)=O, 19-membered ring, 0.17 h
  ring closure, isolated yield: 77%

## CC(=O)N[C@H]1CCCC[C@@H](C(N)=O)NC(=O)[C@H](CCC(N)=O)NC(=O)[C@H](Cc2c[nH]cn2)NC(=O)[C@H](C(C)C)NC1=O [Ac-(allylGly)-Val-His-Gln-Cys-NH2]
From C=CC[C@H](NC(C)=O)C(=O)N[C@H](C(=O)N[C@@H](Cc1c[nH]cn1)C(=O)N[C@@H](CCC(N)=O)C(=O)N[C@@H](CS)C(N)=O)C(C)C, 17-membered ring
  ring closure, isolated yield: 59%

## NC(=O)CC[C@@H]1NC(=O)[C@H](Cc2ccc(O)cc2)NC(=O)[C@H](Cc2ccccc2)NC(=O)[C@@H](NC(=O)[C@@H](N)CC(=O)O)CCCC[C@@H](C(N)=O)NC1=O [H-Asp-(allylGly)-Phe-Tyr-Gln-Cys-NH2]
From C=CC[C@H](NC(=O)[C@@H](N)CC(=O)O)C(=O)N[C@@H](Cc1ccccc1)C(=O)N[C@@H](Cc1ccc(O)cc1)C(=O)N[C@@H](CCC(N)=O)C(=O)N[C@@H](CS)C(N)=O, 17-membered ring
  ring closure, isolated yield: 82%

## CSCC[C@@H]1NC(=O)[C@@H]2CCCN2C(=O)[C@H](CCCNC(=N)N)NC(=O)[C@@H](N)CCCC[C@@H](C(N)=O)NC(=O)[C@H](Cc2c[nH]cn2)NC1=O [H-(allylGly)-Arg-Pro-Met-His-Cys-NH2]
From C=CC[C@H](N)C(=O)N[C@@H](CCCNC(=N)N)C(=O)N1CCC[C@H]1C(=O)N[C@@H](CCSC)C(=O)N[C@@H](Cc1c[nH]cn1)C(=O)N[C@@H](CS)C(N)=O, 20-membered ring
  ring closure, isolated yield: 0%

## CC(=O)N[C@H]1CCCC[C@@H](C(N)=O)NC(=O)[C@H](C(C)C)NC(=O)[C@H](CCCNC(=N)N)NC(=O)[C@@H]2CCCN2C(=O)[C@H](Cc2c[nH]cn2)NC(=O)[C@H](CC(N)=O)NC1=O [Ac-(allylGly)-Asn-His-Pro-Arg-Val-Cys-NH2]
From C=CC[C@H](NC(C)=O)C(=O)N[C@@H](CC(N)=O)C(=O)N[C@@H](Cc1c[nH]cn1)C(=O)N1CCC[C@H]1C(=O)N[C@@H](CCCNC(=N)N)C(=O)N[C@H](C(=O)N[C@@H](CS)C(N)=O)C(C)C, 23-membered ring
  ring closure, isolated yield: 32%

## C[C@@H]1NC(=O)CCC[C@@H](C(N)=O)NC(=O)[C@H](C)NC(=O)[C@H](Cc2ccccc2)NC1=O [Acryloyl-Ala-Phe-Ala-Cys-NH2]
From C=CC(=O)N[C@@H](C)C(=O)N[C@@H](Cc1ccccc1)C(=O)N[C@@H](C)C(=O)N[C@@H](CS)C(N)=O, 15-membered ring, 1.0 h
  ring closure, isolated yield: 0%

## CC(=O)N[C@H]1CCCC[C@@H](C(N)=O)NC(=O)[C@H](Cc2c[nH]c3ccccc23)NC(=O)[C@H](CCC(N)=O)NC(=O)[C@H](CC(C)C)NC(=O)[C@H](CCC(=O)O)NC1=O [Ac-(allylGly)-Glu-Leu-Gln-Trp-Cys-NH2]
From C=CC[C@H](NC(C)=O)C(=O)N[C@@H](CCC(=O)O)C(=O)N[C@@H](CC(C)C)C(=O)N[C@@H](CCC(N)=O)C(=O)N[C@@H](Cc1c[nH]c2ccccc12)C(=O)N[C@@H](CS)C(N)=O, 20-membered ring
  ring closure, isolated yield: 37%
